Patent US20250223306A1, “TEAD INHIBITORS AND METHODS OF USE” (Sporos BioDiscovery, Inc., priority 2022, published 2025)

Experiments:
Mero14 cells = assay: Mero14 proliferation and cell viability assay (CTG); type: cell-based; conditions: Mero14 cell line, 144 hours
Method: (§1) Mero14 cells were trypsinised, counted and plated at 400 cells/well in 200 μl of growth media in 96 well flat bottom tissue culture treated plates. The plated cells were incubated overnight at 37° C., 5% CO2 before being treated with compounds in triplicate for each assay point. 50 μl of the serially diluted compound was added to each well giving a final DMSO concentration of 0.5% per well and a total volume of 250 μl per well. The treated cells were incubated for 144 hours (6 days) at 37° C., 5% CO2. Following compound treatment the remaining viable cells were detected using the Promega CellTiter-Glo 2.0 assay as follows: 150 μl of media was removed from each of the wells to be assayed and 100 μl of room temperature CellTiter-Glo 2.0 reagent was added. The plate was placed on an orbital shaker at 500 rpm at room temperature for 2 minutes, and then incubated without shaking for a further 10 minutes at room temperature. 150 μl of cell lysate was removed from each well and dispensed into a single well of a white opaque 96 well plate.
Luminescence at 545 nm was read using a BMG CLARIOstar plate reader. The luminescent signal was directly proportional to number of viable cells, the percent of viable cells relative to the DMSO control was then calculated for each assay point. Percent viability relative to DMSO control is plotted against compound concentration and a curve fitted with non-linear regression in GraphPad Prism software. IC50 values were calculated using GraphPad Prism software as follows: For Relative IC50 values, a non-constrained four-parameter logistic curve fit was used (Sigmoidal, 4PL, X is concentration). For Absolute IC50 values the baseline was constrained to Y=0 (Absolute IC50, X is concentration). Area Under the Curve (AUC): Prism computed area-under-the-curve by the trapezoidal method. The analysis sees a fitted curve as simply a series of connected XY points. Prism simply computes the area under the “curve” defined by connecting the points by straight lines. The units of the AUC are the units of the Y axis times units of the X axis.

BHY cells = assay: BHY proliferation and cell viability assay (CTG); type: cell-based; conditions: BHY cell line
Method: as §1, with “BHY” for “Mero14”, “the specified cell density” for “400 cells/well”, “treatment,” for “treatment”, “plate. Luminescence at 545 nm was read using a BMG CLARIOstar plate reader. The luminescent signal was directly proportional to number of viable cells, the percent of viable cells relative to the DMSO control was then calculated for each assay point. Percent viability relative to DMSO control was plotted against compound concentration and a curve fitted with non-linear regression in GraphPad” for “plate.”
Prism software. EC50 and IC50 values are calculated using GraphPad Prism software as follows: For EC50 values, a non-constrained four-parameter logistic curve fit was used (Sigmoidal, 4PL, X is concentration). For Absolute IC50 values the baseline was constrained to Y=0 (Absolute IC50, X is concentration). Area Under the Curve (AUC): Prism computes area-under-the-curve by the trapezoidal method. The analysis sees a fitted curve as simply a series of connected XY points. Prism simply computes the area under the “curve” defined by connecting the points by straight lines. The units of the AUC are the units of the Y axis times units of the X axis.

TEAD3 = TEAD3 (Homo sapiens, UniProt Q99594); assay: TEAD thermal shift assay (TSA); type: binding
Description: (§2) Thermal shift assay (TSA) is a biophysical method to evaluate stability of proteins with change in temperature. The assay measures thermal denaturation temperature in varying conditions such as different drug concentration. For this example, fluorogenic dye was used that bind to unfolded proteins. SYPRO Orange binds non-specifically to hydrophobic surfaces, and water strongly quenches its fluorescence. When the protein unfolds, the exposed hydrophobic surfaces bind the dye, resulting in an increase in fluorescence by excluding water. Detergent micelles also bind the dye and increase background noise dramatically. Binding of small molecules to proteins leads to a stabilization against to thermal denaturation with the degree of thermal stabilization proportional to the strength of binding.
(§3) The study described in this example investigated the change in melting temperature (ΔTm) of TEAD isoforms 1˜4 when treated with TEAD inhibitors. Compound 1-1-a known strong TEAD1 and weak TEAD2 inhibitor; as well as Compound 1-4-a pan-TEAD inhibitor were used as controls.
(§4) Tris-HCL was dissolved in 5 mL of Cell culture grade water and allowed to dissolve completely. The pH was adjusted to 8 using NaOH. Additional assay buffer components were added in the order listed above. The buffer was mixed slowly.
(§5) Assay buffer was prepared according to the procedures outlined above and dispensed into test wells. Spyro orange was added to a concentration of 5× in the assay buffer, followed by test compound stock solution which was added to a concentration of 10 μM or 30 μM in the assay buffer.
(§6) The melt cycle was performed in Bio-RAD PCR instrument from 20-95° C. with ramp rate of 1° C./min.

TEAD2 = TEAD2 (Homo sapiens, UniProt Q15562); assay: TEAD thermal shift assay (TSA); type: binding
Description: as §2, §3, §4, §5, §6

TEAD1 = TEAD1 (Homo sapiens, UniProt P28347); assay: TEAD thermal shift assay (TSA); type: binding
Description: as §2, §3, §4, §5, §6

TEAD4 = TEAD4 (Homo sapiens, UniProt Q15561); assay: TEAD thermal shift assay (TSA); type: binding
Description: as §2, §3, §4, §5, §6

[1] = ratio of protein to compound 1:1
[2] = ratio of protein to compound 1:3

TEAD2, sequence (Q15562 whole entry): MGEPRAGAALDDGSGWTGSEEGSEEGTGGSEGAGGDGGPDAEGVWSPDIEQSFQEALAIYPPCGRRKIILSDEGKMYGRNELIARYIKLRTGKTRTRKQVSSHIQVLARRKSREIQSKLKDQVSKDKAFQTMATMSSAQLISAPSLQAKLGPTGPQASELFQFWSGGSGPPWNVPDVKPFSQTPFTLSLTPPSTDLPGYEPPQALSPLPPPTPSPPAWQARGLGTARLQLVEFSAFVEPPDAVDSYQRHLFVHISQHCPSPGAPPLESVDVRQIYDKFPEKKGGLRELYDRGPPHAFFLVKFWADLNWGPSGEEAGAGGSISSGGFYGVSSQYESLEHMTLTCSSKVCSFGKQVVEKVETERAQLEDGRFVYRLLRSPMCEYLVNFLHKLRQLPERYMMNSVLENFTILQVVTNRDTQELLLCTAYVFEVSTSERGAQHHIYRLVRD
TEAD3, sequence (Q99594 whole entry): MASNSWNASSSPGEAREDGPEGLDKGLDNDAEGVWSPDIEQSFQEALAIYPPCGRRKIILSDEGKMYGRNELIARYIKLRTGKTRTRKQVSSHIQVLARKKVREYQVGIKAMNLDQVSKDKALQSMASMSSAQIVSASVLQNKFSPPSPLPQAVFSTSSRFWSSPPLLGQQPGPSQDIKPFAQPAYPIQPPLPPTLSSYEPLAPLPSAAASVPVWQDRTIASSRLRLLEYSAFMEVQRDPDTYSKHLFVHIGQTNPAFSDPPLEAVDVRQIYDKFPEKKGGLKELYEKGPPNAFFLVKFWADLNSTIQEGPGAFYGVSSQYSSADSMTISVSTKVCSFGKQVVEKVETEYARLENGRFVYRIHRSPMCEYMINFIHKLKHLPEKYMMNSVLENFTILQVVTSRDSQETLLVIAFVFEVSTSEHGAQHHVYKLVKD
TEAD4, sequence (Q15561 whole entry): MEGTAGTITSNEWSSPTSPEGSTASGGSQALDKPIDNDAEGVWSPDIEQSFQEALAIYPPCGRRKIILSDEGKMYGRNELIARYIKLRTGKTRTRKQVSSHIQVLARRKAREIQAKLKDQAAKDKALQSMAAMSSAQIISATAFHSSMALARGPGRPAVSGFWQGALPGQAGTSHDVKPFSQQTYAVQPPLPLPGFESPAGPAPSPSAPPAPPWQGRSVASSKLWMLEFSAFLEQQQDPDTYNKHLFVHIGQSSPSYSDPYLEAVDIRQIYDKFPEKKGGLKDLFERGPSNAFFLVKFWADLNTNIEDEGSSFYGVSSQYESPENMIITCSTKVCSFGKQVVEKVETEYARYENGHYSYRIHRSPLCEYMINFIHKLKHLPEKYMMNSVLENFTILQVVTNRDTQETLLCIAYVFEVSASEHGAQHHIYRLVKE
TEAD1, sequence (P28347 whole entry): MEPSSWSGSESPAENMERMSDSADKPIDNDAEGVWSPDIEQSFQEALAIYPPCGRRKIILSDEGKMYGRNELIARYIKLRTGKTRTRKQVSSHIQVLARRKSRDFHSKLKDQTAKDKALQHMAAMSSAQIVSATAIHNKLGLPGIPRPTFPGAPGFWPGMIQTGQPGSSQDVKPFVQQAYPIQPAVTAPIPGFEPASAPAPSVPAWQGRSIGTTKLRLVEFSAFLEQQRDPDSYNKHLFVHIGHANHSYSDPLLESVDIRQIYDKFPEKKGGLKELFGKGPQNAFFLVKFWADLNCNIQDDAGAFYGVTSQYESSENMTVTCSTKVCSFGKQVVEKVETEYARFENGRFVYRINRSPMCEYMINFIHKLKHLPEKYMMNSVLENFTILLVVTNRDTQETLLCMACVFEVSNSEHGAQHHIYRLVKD

Row | Compound | EC50 (Mero14 cells) [nM] | EC50 (BHY cells; 144 hours) [nM] | TEAD3 ΔTm (TEAD3; [1]) [°C] | TEAD3 ΔTm (TEAD3; [2]) [°C] | TEAD2 ΔTm (TEAD2; [1]) [°C] | TEAD2 ΔTm (TEAD2; [2]) [°C] | TEAD1 ΔTm (TEAD1; [1]) [°C] | TEAD1 ΔTm (TEAD1; [2]) [°C] | TEAD4 ΔTm (TEAD4; [1]) [°C] | TEAD4 ΔTm (TEAD4; [2]) [°C] | EC50 (BHY cells; 144 h) [nM]
1 | C[C@H](NC(=O)c1cnc2c(C3=CC[C@@H](C(F)(F)F)CC3)cccc2c1)c1ncco1 (single isomer, unassigned) [Compound 19, N-(1-(oxazol-2-yl)ethyl)-8-(4-(trifluoromethyl)cyclohex-1-en-1-yl)quinoline-3-carboxamide] | < 200 | < 200 | 2 | 4 | 2 | 3 | 12 | 12 | 2 | 3 | 
2 | C[C@H](NC(=O)c1cnc2c(C3=CC[C@@H](C(F)(F)F)CC3)cccc2c1)c1ncco1 (single isomer, unassigned) [Compound 20, N-(1-(oxazol-2-yl)ethyl)-8-(4-(trifluoromethyl)cyclohex-1-en-1-yl)quinoline-3-carboxamide] |  |  | 2 | 4.5 | 1 | 3 | 10 | 13 | 1.5 | 3 | < 200
3 | FC(F)(F)c1ccc(CN2CCC(C3CC(Br)=NO3)CC2)cc1 (stereo not shown) [Compound 1-2, reference compound] | 200 to 1000 |  |  |  |  |  |  |  |  |  | > 1000
4 | C=CC(=O)Nc1ccc(C)c(Oc2ccc(Cl)cc2)c1 [Compound 1-3, reference compound] | < 200 |  |  |  |  |  |  |  |  |  | < 200
5 | C[C@H](NC(=O)c1cnc2c(C3=CCC(C(F)(F)F)CC3)cccc2c1)c1ccccn1 (stereo partly drawn) [Compound 2, N—((S)-1-(pyridin-2-yl)ethyl)-8-(4-(trifluoromethyl)cyclohex-1-en-1-yl)quinoline-3-carboxamide] |  |  | 2 | 3 | 1 | 1.5 | 10 | 12 | 2 | 4 | 
6 | C[C@H](CO)NC(=O)c1cnc2c(C3=CCC(C(F)(F)F)CC3)cccc2c1 (stereo partly drawn) [Compound 7, N—((R)-1-hydroxypropan-2-yl)-8-(4-(trifluoromethyl)cyclohex-1-en-1-yl)quinoline-3-carboxamide] | < 200 |  | 2 | 2 | 2 | 3 | 9 | 11 | 1.5 | 3 | < 200
7 | O=C(NCc1ncco1)c1cnc2c(C3=CCC(C(F)(F)F)CC3)cccc2c1 (stereo not shown) [Compound 11, N-(oxazol-2-ylmethyl)-8-(4-(trifluoromethyl)cyclohex-1-en-1-yl)quinoline-3-carboxamide] | < 200 |  | 3.5 | 3 | 3 | 3 | 11 | 11.5 | 1.5 | 2.5 | 
8 | O=C(NCc1ccn[nH]1)c1cnc2c(C3=CCC(C(F)(F)F)CC3)cccc2c1 (stereo not shown) [Compound 47, N-((1H-pyrazol-5-yl)methyl)-8-(4-(trifluoromethyl)cyclohex-1-en-1-yl)quinoline-3-carboxamide] | < 200 |  | 2 | 3 | 2 | 2 | 9 | 11 | 3 | 3 | < 200
9 | COC[C@H](CO)NC(=O)c1cnc2c(C3=CCC(C(F)(F)F)CC3)cccc2c1 (stereo partly drawn) [Compound 62, N—((S)-1-hydroxy-3-methoxypropan-2-yl)-8-(4-(trifluoromethyl)cyclohex-1-en-1-yl)quinoline-3-carboxamide] | < 200 |  | 1 | 2 | 3 | 3 | 9 | 11 | 2 | 3 | < 200
10 | COc1cc(C2=CCC(C(F)(F)F)CC2)c2ncc(C(=O)N[C@H](C)c3ncco3)cc2c1 (stereo partly drawn) [Compound 109, 6-methoxy-N—((R)-1-(oxazol-2-yl)ethyl)-8-(4-(trifluoromethyl)cyclohex-1-en-1-yl)quinoline-3-carboxamide] | < 200 |  | 2 | 3 | 3 | 2 | 13 | 14 | 1 | 2 | < 200
11 | COc1cc(C2=CCC(C(F)(F)F)CC2)c2ncc(C(=O)N[C@H](C)CO)cc2c1 (stereo partly drawn) [Compound 110, N—((R)-1-hydroxypropan-2-yl)-6-methoxy-8-(4-(trifluoromethyl)cyclohex-1-en-1-yl)quinoline-3-carboxamide] | < 200 |  | 2 | 3 | 2 | 3 | 14 | 16 | 2 | 3 | 
12 | C[C@H](CO)NC(=O)c1cnc2c(C3=CCC4(CC3)CC(F)(F)C4)cccc2c1 [Compound 165, (R)-8-(2,2-difluorospiro[3.5]non-6-en-7-yl)-N-(1-hydroxypropan-2-yl)quinoline-3-carboxamide] | < 200 |  |  |  |  |  |  |  |  |  | 
13 | C[C@@H](NC(=O)c1cnc2c(C3=CCC4(CC3)CC4)cccc2c1)c1ncco1 [Compound 166, (R)—N-(1-(oxazol-2-yl)ethyl)-8-(spiro[2.5]oct-5-en-6-yl)quinoline-3-carboxamide] | < 200 |  |  |  |  |  |  |  |  |  | 
